Results taken from patent publication US20080207759A1, “METHOD FOR PROTECTING MITOCHONDRIA” (SUCAMPO AG, priority 2007, published 2008).
No end group written: not given here.

Tests used:
[1] = test system: human pulmonary artery smooth muscle cells (PASMC); experiment: ET-1 induced loss of mitochondrial membrane potential (JC-1 fluorescence); format: cell-based
Description: Human pulmonary Artery Smooth Muscle cells (PASMC) were grown to confluence on 10×22 mm glass cover slips in Clonetics smooth muscle basal media supplemented with growth hormones and fetal bovine serum. The cells on glass cover slips were then placed in 3 ml Hank's Balanced Salt Solution (HBSS) supplemented with […] of the mitochondrial dye JC-1 and incubated at 37° C. for 30 minute. The cells on the cover slips were then washed with 3 ml HBSS and mounted in a cuvette in a spectrofluorimeter with 3 ml HBSS. The emission spectra with excitation at 490 nm were taken over the range of 520 nm to 620 nm (150 sec). […] (0.1% acetone) FCCP, which leads complete depolarization of the mitochondrial membrane potential, was added at the end of each experiment. The spectra were normalized by dividing them by the fluorescence at 570 nm. The value obtained after FCCP treatment was assigned a value of 0 mV and the individual FCCP ratio was subtracted from each ratio point. The control (JC-1) fluorescence ratio was then assigned a value of +224 mV and the membrane potential [DmH(mV)] for each experimental point were calculated accordingly.
The cells were treated with 0.1% DMSO (vehicle for Compound 1), 1 nM Endothelin-1 (ET-1) or 1 nM ET-1 and 100 nM Compound 1 and scans were taken after 10, 30 and 60 minutes of the incubation. FCCP was added at the end and incubated for 60 minutes before taking scan. N=5 cover slips for all conditions.
The cells were treated with 0.1% DMSO or 1 nm Endothelin-1 (ET-1) and scans were taken after 30 minutes of incubation. The medium was then removed by washing the cells with fresh HBSS and scans were taken after 30 minutes. FCCP was added to the dish at the end and incubated for 60 minutes before taking scan. N=5 cover slips. In other set of 5 cover slips 1 nM Endothelin-1 (ET-1) and 100 nM Compound 1 were added and scans were taken after 30 minutes of incubation. The medium was then removed by washing the cells with fresh HBSS and 100 nM Compound 1 was added on top of it. Scans were taken after 30 minutes. FCCP was added at the end and incubated for 60 minutes before taking scan. N=3 cover slips.
The cells were treated with 1 nM Endothelin-1 (ET-1) and scans were taken after 30 minutes of incubation. The medium was then removed by washing the cells with fresh HBSS and HBSS supplemented with 100 nM Compound 1 was added to the cells. Scans were taken after 30 minutes. FCCP was added at the end and incubated for 60 minutes before taking scan. N=5 cover slips for all conditions.

[2] = test system: Human lung alveolar type II cells (A549); experiment: Cytochrome c translocation into the cytosol induced by cigarette smoke extract (cytochrome c ELISA); format: cell-based; settings: 100 nM Compound A with 1%, 2.5% or 5% CSE, 24 hrs
Description: Smoke from 8 cigarettes were bubbled slowly through 100 ml of serum free culture medium and the resulting suspension was filtered through 0.20 μm filter. The solution was considered as 100% cigarette smoke extract (CSE). Human lung alveolar type II cells (A549) were seeded 1.5×10^5 cells per well in a 96 well plate and incubated for 48 hrs. The cells were then treated separately with either 100 nM Compound A (13,14-dihydro-15-keto-16,16-difluoro-18(S)-methyl-PGE1) or 1%, 2.5% and 5% CSE. In other sets, 100 nM Compound A was added along with 1%, 2.5% or 5% CSE. All incubations were done at 37° C. for 24 hrs. After 24 hr treatment, the cells were washed with 0-4° C. PBS three times. Measurement of cytochrome c that was translocated into the cytosol, a marker of cellular injury, was performed with a cytochrome c ELISA assay kit according to the instructions provided with the kit.

How did the mitochondrial membrane potential ([1]; Example 1-2, ET-1 30 min, then ET-1 removed, scan after 30 min) turn out when “Endothelin-1 (CSCSSLMDKECVYFCHLDIIW; ends and bridges not checked; cysteine pairing not given here; UniProt P05305 53-73, looked up) [ET-1, reference compound]” was run?
Its mitochondrial membrane potential is 49.3±2.2 mV.

What about the mitochondrial membrane potential ([1]; Examples 1-2 and 1-3, ET-1 alone, 30 min) of the same compound?
Its mitochondrial membrane potential is 50.3±5.6 mV.

What about the mitochondrial membrane potential ([1]; PASMC, 1 nM ET-1 alone, 10 min, control taken as 224 mV) of the same compound?
Its mitochondrial membrane potential is 54.5±4.3 mV.

And the mitochondrial membrane potential ([1]; PASMC, 1 nM ET-1 alone, 30 min (Example 1-1), control taken as 224 mV)?
The mitochondrial membrane potential was 28.0±2.8 mV.

And the mitochondrial membrane potential ([1]; PASMC, 1 nM ET-1 alone, 60 min, control taken as 224 mV)?
The mitochondrial membrane potential was 13.1±1.0 mV.

What does the source list for CCCCC(F)(F)C(=O)CCC1CCC(=O)C1CCCCCCC(=O)O (stereo not shown) [Compound 1, 11-deoxy-13,14-dihydro-15-keto-16,16-difluoro-PGE1]?
protection against ET-1 induced loss of membrane potential (in words) ([1]; 100 nM Compound 1 with 1 nM ET-1, 10, 30 and 60 min): protects against ET-1 induced loss of membrane potential at all times tested; mitochondrial membrane potential ([1]; Example 1-2, 1 nM ET-1 along with 100 nM Compound 1, 30 min): 137.1±4.7 mV; mitochondrial membrane potential ([1]; Example 1-2, after removal of ET-1 with continued 100 nM Compound 1, further 30 min): 115.3±2.3 mV; mitochondrial membrane potential (rescue) ([1]; Example 1-3, ET-1 30 min, then ET-1 removed and 100 nM Compound 1 added, 30 min): 77.2±2.7 mV; mitochondrial membrane potential ([1]; PASMC, 1 nM ET-1 and 100 nM Compound 1, 10 min, control taken as 224 mV): 114.2±2.6 mV; mitochondrial membrane potential ([1]; PASMC, 1 nM ET-1 and 100 nM Compound 1, 30 min, control taken as 224 mV): 104.02±5.0 mV; mitochondrial membrane potential ([1]; PASMC, 1 nM ET-1 and 100 nM Compound 1, 60 min, control taken as 224 mV): 73.1±2.4 mV

Which “cytochrome c translocation by CSE (in words)” value [2] does the source give for CC[C@H](C)CC(F)(F)C(=O)CC[C@H]1[C@H](O)CC(=O)[C@@H]1CCCCCCC(=O)O [Compound A, 13,14-dihydro-15-keto-16,16-difluoro-18(S)-methyl-PGE1] here?
The value was “protected against cytochrome c translocation by CSE”.
